“Also recorded” adds a separate entry of the source.
What was measured:
MGE progenitor cells = experiment: HD-DoE 12-factor experiment for stage 4 recipe, optimized for MEF2C; type: cell-based, human
Description: These effectors are small molecules or proteins. They are commonly used during stepwise differentiation of stem cells to specific fates. The choice of the effectors was based on current literature on neural induction in forebrain region of developing brain and differentiation of stem cells to neural progenitors.
To evaluate the effectors, experiments with at least 8 factors were designed that can assess the response of cells to 48 or more different combinations of effectors in a range of concentrations. To analyze the models, we focused on expression of genes involved in development and patterning of the forebrain interneurons maturation including LHX6 (Yuan et al. (2018) Elife, 7:e37382), DLX5 (Wang et al. (2010) J. Neuroscience 30:5334-5345), ASCL1 (Shi et al. (2016) J. Biol. Chem. 291:13560-13570). At later stages we focused on interneuron maturation genes including Parvalbumin and absence of somatostatin (Horn and Nicoll (2018) Proc. Natl. Acad. Sci. 115:589-594). The impacts of each effector on gene expression level are defined by a parameter called factor contribution that is calculated for each effector during the modeling.
To identify the recipe of stage 4 of differentiation, 48 different combinations of effectors generated using Design-of-Experiments compression through D-optimality were robotically prepared. The effector combinations were prepared in a basal media and were subsequently added to the cells, which were then allowed to differentiate. Three days later RNA extraction was performed, and gene expression was obtained using quantitative PCR analysis. The data was normalized and modeled using partial least squares regression analysis to the effector design, resulting in the generation of gene-specific models, which after model tuning for maximal predictive power, provided explanation of the effectors ability to control the expression of individual genes, combinatorically, and individually. Solutions within the tested space could then be explored to address desirability. […] Valproic Acid can inhibit histone deaceylases and increase γ-aminobutyric acid (GABA). […] GDNF is the […] Glial cell line-derived neurotrophic factor and can activate the GDNF pathway.
To find the set of factors that have the potential to optimize MEF2C in this experiment, a new assessment was done through dynamic profile analysis with focus on maximal expression of MEF2C (FIG. 20).

[1] = tested on: human pluripotent stem cells; experiment: factor criticality analysis (dynamic profile analysis) of stage 1 recipe; type: cell-based; parameters: unit not given here; conditions: other five factors present; for expression level of FEZF2 when the effector is removed: 2000 with all six factors; for expression level of SIX3 when the effector is removed: 3000 with all six factors; for expression level of OTX2 when the effector is removed: 5500 with all six factors
Procedure: To assess the impact of the elimination of each validated factor, dynamic profile analysis was used and compared the expression level of genes of interest in absence of each finalized factor while others are present.
In the stage 1 recipe, each of the six finalized factors were removed individually while the other five factors were present and expression levels of forebrain genes was assessed compared to the presence of all six factors together. The results are summarized in FIG. 11A-B. When LDN193189 was removed, expression levels of FEZF2, OTX2 and SIX3 were decreased drastically from 2000 to 1000, 5500 to 4000 and 3000 to 0, respectively. […] When Purmorphamine was removed, levels of FEZF2 and SIX3 were decreased to 1000 and below 3000, while levels of OTX2 increased to 6500.

[2] = tested on: stage 2 neural stem cells; experiment: factor criticality analysis (dynamic profile analysis) of stage 3 recipe; type: cell-based, human; parameters: unit not given here; conditions: other five factors present
Procedure: To assess the impact of the elimination of each validated factor, dynamic profile analysis was used and compared the expression level of genes of interest in absence of each finalized factor while others are present. […] In the stage 3 recipe, each of the six finalized factors were removed while the other five factors remained present and the expression levels of ASCL1, DLX1 and LHX6 were assessed compared to the presence of all six factors. […] As expected, in the absence of IGF-1, the value of DLX1 increases to 410, however, ASCL1 and LHX6 decreased to 1390 and 220, respectively.

[3] = tested on: stage 2 neural stem cells (cells treated with stage 1 and stage 2 media); experiment: HD-DoE experiment for stage 3 recipe, optimized for ASCL1; type: cell-based, human
Procedure: To further guide the cells to medial ganglionic eminence progenitor fate, an additional HD-DoE experiment was performed for 3 days on cells that were treated with stage 1 and stage 2 media for total of 6 days prior to start of the experiment. This experiment included 13 effectors, LDN193189, A8301, GNF5837, AZD3147, GSI-XX, Takinib, PD0325901, PD173074, BLU9931, IGF-1, MHY1485, Purmorphamine and Prostratin. In this model, we focused on maximum expression of genes expressed in neuronal progenitor cells in medial ganglionic eminence (MGE) region including ASCL1, LHX6 and DLX1 (Silberberg et al. (2016) Neuron 92:59-74). When the model was optimized for maximum expression of ASCL1 at 1700, A8301, GSI-XX, Purmorphamine and Takinib, which is an inhibitor of TAK1 pathway, had the highest factor contributions, 18.1, 14.1, 12.7 and 10.1 respectively. […]

[4] = dynamic profile analysis, FIG. 10

SMILES	impact on expression of MEF2C (MGE progenitor cells; dynamic profile analysis, FIG. 20)	factor contribution on expression of MEF2C (MGE progenitor cells; significant negative effect, model optimized for maximal expression of MEF2C)	expression level of FEZF2 when the effector is removed [1]	expression level of SIX3 when the effector is removed [1]	expression level of OTX2 when the effector is removed [1]	expression level of DLX1 when the effector is removed ([2]; 220 with all six factors)	expression level of LHX6 when the effector is removed ([2]; 240 with all six factors)	expression level of ASCL1 when the effector is removed ([2]; 1650 with all six factors)	impact on expression of ASCL1 [3, 4]	impact on expression of DLX1 [3, 4]	impact on expression of LHX6 [3, 4]	factor contribution on expression of ASCL1 ([3]; positive, model optimized for maximum expression of ASCL1 at 1700, FIG. 9)
c1ccc2c(-c3cnn4cc(-c5ccc(N6CCNCC6)cc5)cnc34)ccnc2c1 [LDN193189]	negative effect	11	1000	0	4000							
c1ccc2c(Oc3nc(Nc4ccc(N5CCOCC5)cc4)c4ncn(C5CCCCC5)c4n3)cccc2c1 [Purmorphamine]			1000	below 3000	6500	stayed the same	190	1200	positive trends; also recorded: Positive impact	did not have a significant negative impact	positive trends; also recorded: Positive impact	12.7

From US20230332103A1, “Methods and Compositions for Generating Human Forebrain Neural Progenitor Cells and for Maturation Thereof to Parvalbumin+ Interneurons” (Trailhead Biosystems Inc., priority 2021, published 2023)
